# Test results taken from patent US20230265116A1, “DEGRADATION OF (EGFR) BY CONJUGATION OF EGFR INHIBITORS WITH E3 LIGASE LIGAND AND METHODS OF USE” (BEIGENE, LTD., priority 2020, published 2023).
# Key:
# Assay type in all cases: cell-based
# EGFR (HCC827 cells) = target: T1, EGFR (HCC827 cells) (Homo sapiens, UniProt P00533, DEL746-750); test: EGFR degradation HTRF assay, HCC827 cells; conditions: HCC827, 16h treatment; for Dmax: maximum percentage of degradation
# T1 construct: endogenous in cells; host or cells: HCC827
# Method in brief: (§1)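 EGFR remaining after a 16 h, 37 °C exposure (8 doses, 5-fold steps from 10 uM final, 0.2% DMSO) was quantified by HTRF antibodies in cell lysate. Percent inhibition relative to DMSO control was fitted by four-parameter logistic to give DC50; Dmax denotes maximal degradation.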
# [1] = target: T2, EGFR L858R/T790M (H1975-clone #36, homozygous) (Homo sapiens, UniProt P00533, L858R/T790M); test: EGFR degradation HTRF assay, H1975-clone #36 cells; conditions: H1975 #36, 16h treatment; for Dmax: NCI-H1975, maximum percentage of degradation
# T2 construct: designed to specifically target WT EGFR but preserve the L858R/T790M copy; host or cells: H1975-clone #36
# Method in brief: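 Eight-point, 5-fold series starting at 10 uM (0.2% DMSO) applied for 16 h, 37 °C, to a WT-EGFR-knockout H1975 clone carrying only L858R/T790M. Lysates read by HTRF overnight. Degradation percentage relative to DMSO control fitted for DC50, with Dmax as maximum degradation.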
# [2] = system: EGFR Del19/T790M/C797S (BaF3-DTC cells); test: EGFR degradation HTRF assay, BaF3-DTC cells; conditions: 16h treatment; for DTC Dmax (%): maximum percentage of degradation; for DC50: read-out: DTC DC50
# Method in brief: as §1
# [3] = target: T3, EGFR L858R/T790M/C797S (BaF3-LTC cells) (Homo sapiens, UniProt P00533, C797S/L858R/T790M); test: EGFR degradation HTRF assay, BaF3-LTC cells; conditions: BaF3-LTC, 16h treatment; for Dmax: maximum percentage of degradation, read-out: LTC Dmax (%); for DC50: read-out: LTC DC50
# T3 construct: expressed in transfected cells; host or cells: BaF3
# Method in brief: as §1
# T1 sequence (P00533 with tags, fused parts or gaps DEL746-750): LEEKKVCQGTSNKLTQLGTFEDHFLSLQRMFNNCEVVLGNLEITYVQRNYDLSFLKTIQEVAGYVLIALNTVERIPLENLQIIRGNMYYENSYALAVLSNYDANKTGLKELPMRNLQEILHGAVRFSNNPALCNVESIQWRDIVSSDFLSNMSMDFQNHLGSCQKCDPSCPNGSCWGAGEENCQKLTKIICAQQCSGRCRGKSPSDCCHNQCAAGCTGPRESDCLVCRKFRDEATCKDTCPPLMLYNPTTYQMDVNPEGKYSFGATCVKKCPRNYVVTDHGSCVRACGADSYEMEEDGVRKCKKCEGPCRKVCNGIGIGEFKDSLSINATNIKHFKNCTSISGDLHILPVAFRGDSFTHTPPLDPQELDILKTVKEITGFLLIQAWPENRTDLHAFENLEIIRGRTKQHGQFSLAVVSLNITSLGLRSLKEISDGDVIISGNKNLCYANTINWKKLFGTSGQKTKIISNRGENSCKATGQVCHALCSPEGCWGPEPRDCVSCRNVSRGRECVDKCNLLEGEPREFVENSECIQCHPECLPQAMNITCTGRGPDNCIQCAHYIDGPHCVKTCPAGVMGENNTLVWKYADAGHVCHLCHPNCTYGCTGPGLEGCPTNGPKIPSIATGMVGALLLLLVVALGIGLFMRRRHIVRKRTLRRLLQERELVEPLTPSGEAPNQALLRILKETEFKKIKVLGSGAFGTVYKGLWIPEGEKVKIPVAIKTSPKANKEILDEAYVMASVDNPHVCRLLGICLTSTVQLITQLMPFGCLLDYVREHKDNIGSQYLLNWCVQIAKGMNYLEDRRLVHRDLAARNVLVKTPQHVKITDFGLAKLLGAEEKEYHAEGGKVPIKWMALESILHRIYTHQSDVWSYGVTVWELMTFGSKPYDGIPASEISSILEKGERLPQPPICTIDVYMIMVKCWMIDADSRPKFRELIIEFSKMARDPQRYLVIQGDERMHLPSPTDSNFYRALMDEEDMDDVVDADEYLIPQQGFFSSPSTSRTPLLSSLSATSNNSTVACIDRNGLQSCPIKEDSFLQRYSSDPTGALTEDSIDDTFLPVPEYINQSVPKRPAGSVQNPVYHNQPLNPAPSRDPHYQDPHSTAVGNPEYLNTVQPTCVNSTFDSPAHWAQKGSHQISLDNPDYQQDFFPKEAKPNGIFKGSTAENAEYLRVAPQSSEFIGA
# T3 sequence (P00533 25-1210 T790M/C797S/L858R): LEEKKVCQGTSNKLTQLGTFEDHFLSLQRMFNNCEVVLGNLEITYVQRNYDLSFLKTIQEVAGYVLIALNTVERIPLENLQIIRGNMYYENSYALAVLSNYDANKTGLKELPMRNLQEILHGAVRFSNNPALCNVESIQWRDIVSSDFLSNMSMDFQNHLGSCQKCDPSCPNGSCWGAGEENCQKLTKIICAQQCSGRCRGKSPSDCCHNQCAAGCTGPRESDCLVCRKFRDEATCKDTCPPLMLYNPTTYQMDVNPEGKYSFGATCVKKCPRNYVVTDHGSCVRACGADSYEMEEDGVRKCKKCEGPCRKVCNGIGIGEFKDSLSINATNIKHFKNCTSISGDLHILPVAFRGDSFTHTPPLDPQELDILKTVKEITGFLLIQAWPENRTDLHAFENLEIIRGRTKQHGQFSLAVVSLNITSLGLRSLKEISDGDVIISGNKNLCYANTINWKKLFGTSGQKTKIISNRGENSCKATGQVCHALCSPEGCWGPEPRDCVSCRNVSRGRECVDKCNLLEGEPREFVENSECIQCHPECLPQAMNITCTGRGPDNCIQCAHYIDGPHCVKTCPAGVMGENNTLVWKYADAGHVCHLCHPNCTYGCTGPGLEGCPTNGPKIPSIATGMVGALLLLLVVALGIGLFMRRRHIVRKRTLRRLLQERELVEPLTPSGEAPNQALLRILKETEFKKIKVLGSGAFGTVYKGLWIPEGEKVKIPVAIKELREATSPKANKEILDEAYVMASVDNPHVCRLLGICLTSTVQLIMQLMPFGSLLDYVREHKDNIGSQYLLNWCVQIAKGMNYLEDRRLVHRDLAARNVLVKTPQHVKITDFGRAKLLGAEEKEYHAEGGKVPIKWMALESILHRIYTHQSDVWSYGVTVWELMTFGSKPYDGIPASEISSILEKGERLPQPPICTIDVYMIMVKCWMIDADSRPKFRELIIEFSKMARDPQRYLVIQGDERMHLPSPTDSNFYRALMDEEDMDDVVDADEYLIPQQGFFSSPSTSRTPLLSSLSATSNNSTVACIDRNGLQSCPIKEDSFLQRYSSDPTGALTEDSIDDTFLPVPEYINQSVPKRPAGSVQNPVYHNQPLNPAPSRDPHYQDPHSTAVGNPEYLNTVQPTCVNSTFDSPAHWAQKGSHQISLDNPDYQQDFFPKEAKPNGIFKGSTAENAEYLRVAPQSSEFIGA
# T2 sequence (P00533 25-1210 T790M/L858R): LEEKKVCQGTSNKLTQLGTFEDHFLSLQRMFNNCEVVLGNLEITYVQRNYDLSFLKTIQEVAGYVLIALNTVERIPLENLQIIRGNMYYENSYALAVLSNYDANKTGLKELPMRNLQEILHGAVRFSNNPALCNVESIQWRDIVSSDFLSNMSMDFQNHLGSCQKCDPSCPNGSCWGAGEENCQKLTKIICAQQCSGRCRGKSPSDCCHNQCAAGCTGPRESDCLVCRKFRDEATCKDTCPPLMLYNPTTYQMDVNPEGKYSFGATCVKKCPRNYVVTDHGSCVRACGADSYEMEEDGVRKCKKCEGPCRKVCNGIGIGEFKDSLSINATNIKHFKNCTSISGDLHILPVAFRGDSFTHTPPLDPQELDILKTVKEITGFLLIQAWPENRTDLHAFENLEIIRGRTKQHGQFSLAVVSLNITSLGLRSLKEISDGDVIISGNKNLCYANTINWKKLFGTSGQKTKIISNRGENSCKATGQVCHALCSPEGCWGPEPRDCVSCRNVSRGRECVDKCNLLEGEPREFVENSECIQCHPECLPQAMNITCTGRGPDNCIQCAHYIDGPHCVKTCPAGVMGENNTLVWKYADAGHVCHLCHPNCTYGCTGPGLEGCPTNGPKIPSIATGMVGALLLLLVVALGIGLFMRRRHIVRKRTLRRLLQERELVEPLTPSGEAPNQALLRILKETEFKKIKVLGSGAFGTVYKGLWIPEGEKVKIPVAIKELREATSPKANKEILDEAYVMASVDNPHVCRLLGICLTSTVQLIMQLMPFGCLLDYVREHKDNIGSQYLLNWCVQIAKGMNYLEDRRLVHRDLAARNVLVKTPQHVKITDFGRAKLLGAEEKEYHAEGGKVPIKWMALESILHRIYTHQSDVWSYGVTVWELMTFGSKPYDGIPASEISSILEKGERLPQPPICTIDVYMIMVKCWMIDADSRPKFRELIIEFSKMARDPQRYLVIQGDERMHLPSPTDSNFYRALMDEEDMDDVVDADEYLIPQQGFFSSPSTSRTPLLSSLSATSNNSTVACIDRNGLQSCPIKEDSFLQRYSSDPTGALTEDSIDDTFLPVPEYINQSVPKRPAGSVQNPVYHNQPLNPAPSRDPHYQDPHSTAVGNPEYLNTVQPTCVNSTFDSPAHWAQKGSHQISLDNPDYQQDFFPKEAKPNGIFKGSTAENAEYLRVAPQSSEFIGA
DC50 (EGFR (HCC827 cells)) [nM],Dmax (EGFR (HCC827 cells)) [%],DC50 [1] [nM],Dmax [1] [%],DC50 [2] [nM],Dmax [3] [%],DC50 [3] [nM],SMILES,DTC Dmax (%) [2] [%]
2.69,81.7,3.07,76.8,6.95,92.9,18.1,"CCc1cc(Nc2ncc(Br)c(Nc3ccc4nccnc4c3P(C)(C)=O)n2)c(OC)cc1N1CCC(N2CCN(CC3CN(c4ccc5c(c4)CN(C4CCC(=O)NC4=O)C5=O)C3)CC2)CC1 (centres unmarked) [Example 160, 3-(5-(3-((4-(1-(4-((5-bromo-4-((5-(dimethylphosphoryl)quinoxalin-6-yl)amino)pyrimidin-2-yl)amino)-2-ethyl-5-methoxyphenyl)piperidin-4-yl)piperazin-1-yl)methyl)azetidin-1-yl)-1-oxoisoindolin-2-yl)piperidine-2,6-dione]",94.14
12.3,83.3,15.9,82.6,15.4,88.7,83.3,"CCc1cc(Nc2ncc(Br)c(Nc3ccc4nccnc4c3P(C)(C)=O)n2)c(OC)cc1N1CCC(N2CCN(CCc3ccc(C4CCC(=O)NC4=O)c(F)c3F)CC2)CC1 (centres unmarked) [Example 10, 3-(4-(2-(4-(1-(4-((5-bromo-4-((5-(dimethylphosphoryl)quinoxalin-6-yl)amino)pyrimidin-2-yl)amino)-2-ethyl-5-methoxyphenyl)piperidin-4-yl)piperazin-1-yl)ethyl)-2,3-difluorophenyl)piperidine-2,6-dione]",85.51
3.71,78.5,7.03,69,3.41,75.6,21.3,"CCc1cc(Nc2ncc(Br)c(Nc3ccc4nccnc4c3P(C)(C)=O)n2)c(OC)cc1N1CCC(N2CCN(C(=O)CC3CN(c4ccc5c(c4)C(=O)N(C4CCC(=O)NC4=O)C5=O)C3)CC2)CC1 (centres unmarked) [Example 222, 5-(3-(2-(4-(1-(4-((5-bromo-4-((5-(dimethylphosphoryl)quinoxalin-6-yl)amino)pyrimidin-2-yl)amino)-2-ethyl-5-methoxyphenyl)piperidin-4-yl)piperazin-1-yl)-2-oxoethyl)azetidin-1-yl)-2-(2,6-dioxopiperidin-3-yl)isoindoline-1,3-dione]",83.72
5.15,75.3,6.46,61,15.7,84.2,36.1,"CCc1cc(Nc2ncc(Br)c(Nc3ccc4nccnc4c3P(C)(C)=O)n2)c(OC)cc1N1CCC(N2CCN(C[C@@H]3CCN(c4ccc(C5CCC(=O)NC5=O)cc4)C3)CC2)CC1 (stereo partly drawn) [Example 221, 3-(4-((S)-3-((4-(1-(4-((5-bromo-4-((5-(dimethylphosphoryl)quinoxalin-6-yl)amino)pyrimidin-2-yl)amino)-2-ethyl-5-methoxyphenyl)piperidin-4-yl)piperazin-1-yl)methyl)pyrrolidin-1-yl)phenyl)piperidine-2,6-dione]",87.37
5.1,77.7,8.8,85.6,18.2,88.8,43.2,"CCc1cc(Nc2ncc(Br)c(Nc3ccc4nccnc4c3P(C)(C)=O)n2)c(OC)cc1N1CCC(N2CCN(C[C@H]3CCN(c4ccc(C5CCC(=O)NC5=O)cc4)C3)CC2)CC1 (stereo partly drawn) [Example 220, 3-(4-((R)-3-((4-(1-(4-((5-bromo-4-((5-(dimethylphosphoryl)quinoxalin-6-yl)amino)pyrimidin-2-yl)amino)-2-ethyl-5-methoxyphenyl)piperidin-4-yl)piperazin-1-yl)methyl)pyrrolidin-1-yl)phenyl)piperidine-2,6-dione]",86
3.14,77.7,3.61,75.5,4.98,84.7,15.9,"CCc1cc(Nc2ncc(Br)c(Nc3ccc4nccnc4c3P(C)(C)=O)n2)c(OC)cc1N1CCC(N2CCN(C(=O)C3CCN(c4cc(F)c(C5CCC(=O)NC5=O)c(F)c4)CC3)CC2)CC1 (centres unmarked) [Example 254, 3-(4-(4-(4-(1-(4-((5-bromo-4-((5-(dimethylphosphoryl)quinoxalin-6-yl)amino)pyrimidin-2-yl)amino)-2-ethyl-5-methoxyphenyl)piperidin-4-yl)piperazine-1-carbonyl)piperidin-1-yl)-2,6-difluorophenyl)piperidine-2,6-dione]",92.55
5.43,89,17.1,84.6,6.97,84.2,24,"CCc1cc(Nc2ncc(Br)c(Nc3ccc4c(=O)n(C)ncc4c3P(C)(C)=O)n2)c(OC)cc1N1CCC(N2CCN(CCC3CCN(c4cc(F)c(C5CCC(=O)NC5=O)c(F)c4)CC3)CC2)CC1 (centres unmarked) [Example 270, 3-(4-(4-(2-(4-(1-(4-((5-bromo-4-((5-(dimethylphosphoryl)-2-methyl-1-oxo-1,2-dihydrophthalazin-6-yl)amino)pyrimidin-2-yl)amino)-2-ethyl-5-methoxyphenyl)piperidin-4-yl)piperazin-1-yl)ethyl)piperidin-1-yl)-2,6-difluorophenyl)piperidine-2,6-dione]",91.36
4.59,67,5.1,72.8,6.37,83.1,18.6,"CCc1cc(Nc2ncc(Br)c(Nc3ccc4nccnc4c3P(C)(C)=O)n2)c(OC)cc1N1CCC(N2CCN(C(=O)[C@H]3C[C@H](N(C)c4ccc(C5CCC(=O)NC5=O)cc4)C3)CC2)CC1 (some centres unmarked) [Example 247, 3-(4-(((1r,3r)-3-(4-(1-(4-((5-bromo-4-((5-(dimethylphosphoryl)quinoxalin-6-yl)amino)pyrimidin-2-yl)amino)-2-ethyl-5-methoxyphenyl)piperidin-4-yl)piperazine-1-carbonyl)cyclobutyl)(methyl)amino)phenyl)piperidine-2,6-dione]",86.93
3.21,65.9,0.65,69.6,1.94,87.5,4.8,"CCc1cc(Nc2ncc(Br)c(Nc3ccc4nccnc4c3P(C)(C)=O)n2)c(OC)cc1N1CCC(N2CCN(C(=O)C3CCN(c4ccc5c(c4)C(C)(C)C(=O)N5C4CCC(=O)NC4=O)CC3)CC2)CC1 (centres unmarked) [Example 219, 3-(5-(4-(4-(1-(4-((5-bromo-4-((5-(dimethylphosphoryl)quinoxalin-6-yl)amino)pyrimidin-2-yl)amino)-2-ethyl-5-methoxyphenyl)piperidin-4-yl)piperazine-1-carbonyl)piperidin-1-yl)-3,3-dimethyl-2-oxoindolin-1-yl)piperidine-2,6-dione]",93
2.06,75.7,3.12,85.8,4.85,85.4,1.72,"CCc1cc(Nc2ncc(Br)c(Nc3ccc4nccnc4c3P(C)(C)=O)n2)c(OC)cc1N1CCC(N2CCN(C(=O)C3CN(c4ccc5c(c4)C(=O)N(C4CCC(=O)NC4=O)C5=O)C3)CC2)CC1 (centres unmarked) [Example 64, 5-(3-(4-(1-(4-((5-bromo-4-((5-(dimethylphosphoryl)quinoxalin-6-yl)amino)pyrimidin-2-yl)amino)-2-ethyl-5-methoxyphenyl)piperidin-4-yl)piperazine-1-carbonyl)azetidin-1-yl)-2-(2,6-dioxopiperidin-3-yl)isoindoline-1,3-dione]",90.07
